The source made the active and inactive calls.
What was measured:
[1] = target: T1, Alkaline phosphatase, tissue-nonspecific isozyme (Homo sapiens, UniProt P05186)
T1 sequence (P05186 whole entry): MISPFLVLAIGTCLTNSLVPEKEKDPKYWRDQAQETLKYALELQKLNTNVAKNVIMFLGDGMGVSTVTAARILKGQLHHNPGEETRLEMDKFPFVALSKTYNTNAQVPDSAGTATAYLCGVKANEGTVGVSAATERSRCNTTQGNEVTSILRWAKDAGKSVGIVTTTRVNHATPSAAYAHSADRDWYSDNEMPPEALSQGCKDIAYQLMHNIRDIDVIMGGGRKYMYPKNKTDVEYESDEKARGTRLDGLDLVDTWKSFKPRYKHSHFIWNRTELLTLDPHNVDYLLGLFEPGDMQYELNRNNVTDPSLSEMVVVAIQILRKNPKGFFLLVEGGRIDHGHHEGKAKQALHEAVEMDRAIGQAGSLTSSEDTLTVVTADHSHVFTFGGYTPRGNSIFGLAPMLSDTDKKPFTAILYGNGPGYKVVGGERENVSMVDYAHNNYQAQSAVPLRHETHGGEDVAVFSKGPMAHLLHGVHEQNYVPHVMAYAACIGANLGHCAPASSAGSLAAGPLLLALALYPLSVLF

Albumin = Albumin (Bos taurus, UniProt P02769); assay: Counterscreen for inhibitors of T-cell receptor (TCR)-CD3 interaction: Fluorescence-based biochemical high throughput dose response assay to identify inhibitors of T-cell receptor (TCR)-CD3 interaction using a TAMRA-labeled BSA probe.; assay type: functional
Chain of Albumin (P02769 whole entry): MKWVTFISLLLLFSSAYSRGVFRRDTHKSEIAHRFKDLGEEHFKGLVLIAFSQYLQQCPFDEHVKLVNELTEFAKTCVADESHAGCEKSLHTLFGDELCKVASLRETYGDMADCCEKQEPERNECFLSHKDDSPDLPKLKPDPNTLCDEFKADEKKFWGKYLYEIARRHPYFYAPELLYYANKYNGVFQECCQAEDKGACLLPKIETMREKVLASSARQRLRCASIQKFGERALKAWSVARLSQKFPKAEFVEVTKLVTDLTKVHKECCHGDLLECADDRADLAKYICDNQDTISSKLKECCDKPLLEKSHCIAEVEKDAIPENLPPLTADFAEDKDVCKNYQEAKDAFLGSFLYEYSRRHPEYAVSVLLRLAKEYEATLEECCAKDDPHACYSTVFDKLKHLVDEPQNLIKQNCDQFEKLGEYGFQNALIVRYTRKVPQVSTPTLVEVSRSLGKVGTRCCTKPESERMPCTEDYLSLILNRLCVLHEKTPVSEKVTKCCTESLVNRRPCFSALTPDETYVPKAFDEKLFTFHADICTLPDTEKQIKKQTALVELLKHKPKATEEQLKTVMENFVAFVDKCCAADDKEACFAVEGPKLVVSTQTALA

Cytochrome P450 2C9 = Cytochrome P450 2C9 (Homo sapiens, UniProt P11712); conditions: Potency
Chain of Cytochrome P450 2C9 (P11712 whole entry): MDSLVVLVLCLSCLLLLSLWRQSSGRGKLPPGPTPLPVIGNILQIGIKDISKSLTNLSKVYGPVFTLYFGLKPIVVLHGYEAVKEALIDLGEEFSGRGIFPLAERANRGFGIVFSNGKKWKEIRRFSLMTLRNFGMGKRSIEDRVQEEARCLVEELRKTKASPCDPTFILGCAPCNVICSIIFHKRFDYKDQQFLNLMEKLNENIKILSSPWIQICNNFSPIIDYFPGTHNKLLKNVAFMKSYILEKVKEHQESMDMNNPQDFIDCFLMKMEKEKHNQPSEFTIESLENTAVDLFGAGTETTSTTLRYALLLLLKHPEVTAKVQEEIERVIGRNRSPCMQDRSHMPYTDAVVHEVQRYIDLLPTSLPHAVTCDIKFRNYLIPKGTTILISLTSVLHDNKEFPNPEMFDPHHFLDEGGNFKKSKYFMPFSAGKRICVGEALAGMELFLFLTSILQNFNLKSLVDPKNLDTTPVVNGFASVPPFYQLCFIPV

Prothrombin = Prothrombin (Homo sapiens, UniProt P00734); assay: Thrombin 1536 HTS Dose Response Confirmation. [Related pubchem assays: 1046 (Thrombin 1536 HTS; hits were confirmed in this assay)]; assay type: functional
[2] = target: T2, Eukaryotic translation initiation factor 2-alpha kinase 3 (Homo sapiens, UniProt Q9NZJ5); assay: Dose response cell-based high-throughput screening assay to measure PERK inhibition. [Related pubchem assays: 1416 ]; assay type: functional
T2 sequence (Q9NZJ5 whole entry): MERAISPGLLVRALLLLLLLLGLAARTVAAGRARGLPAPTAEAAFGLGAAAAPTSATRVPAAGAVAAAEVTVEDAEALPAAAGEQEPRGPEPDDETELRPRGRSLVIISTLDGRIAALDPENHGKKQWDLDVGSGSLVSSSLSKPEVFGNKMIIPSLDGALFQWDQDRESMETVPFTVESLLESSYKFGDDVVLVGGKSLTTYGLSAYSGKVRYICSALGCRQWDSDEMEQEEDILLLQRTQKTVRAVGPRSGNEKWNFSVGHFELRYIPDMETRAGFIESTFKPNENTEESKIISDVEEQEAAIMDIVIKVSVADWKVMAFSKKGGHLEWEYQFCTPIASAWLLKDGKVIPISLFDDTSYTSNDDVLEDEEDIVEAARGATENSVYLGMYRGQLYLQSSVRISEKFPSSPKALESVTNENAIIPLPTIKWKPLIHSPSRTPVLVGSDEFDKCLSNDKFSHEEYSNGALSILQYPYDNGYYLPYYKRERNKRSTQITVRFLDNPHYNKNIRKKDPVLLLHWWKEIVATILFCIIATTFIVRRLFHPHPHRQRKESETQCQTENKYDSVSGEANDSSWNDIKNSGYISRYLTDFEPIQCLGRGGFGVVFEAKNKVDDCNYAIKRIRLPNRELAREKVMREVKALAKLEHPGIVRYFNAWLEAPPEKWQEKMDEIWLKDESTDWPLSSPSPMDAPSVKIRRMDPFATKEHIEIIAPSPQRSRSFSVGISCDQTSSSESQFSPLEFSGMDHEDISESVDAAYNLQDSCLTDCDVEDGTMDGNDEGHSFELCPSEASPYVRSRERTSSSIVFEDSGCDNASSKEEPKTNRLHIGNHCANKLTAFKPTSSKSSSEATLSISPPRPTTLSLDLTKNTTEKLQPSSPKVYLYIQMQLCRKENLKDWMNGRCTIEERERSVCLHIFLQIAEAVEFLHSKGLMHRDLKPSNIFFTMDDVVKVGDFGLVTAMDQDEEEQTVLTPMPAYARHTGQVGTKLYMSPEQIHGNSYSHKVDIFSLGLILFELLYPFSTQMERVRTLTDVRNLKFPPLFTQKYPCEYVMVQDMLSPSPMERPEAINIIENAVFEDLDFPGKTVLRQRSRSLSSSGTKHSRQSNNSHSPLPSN

[3] = target: T2, Eukaryotic translation initiation factor 2-alpha kinase 3; assay: Counterscreen assay for PERK inhibitors: Dose response cell-based high throughput screening assay to measure inhibition of PERK at 6 hours. [Related pubchem assays: 1522, 1416 ]; assay type: functional
[4] = microbe, parasite or virus in culture; assay type: functional; conditions: Mycobacterium tuberculosis
[5] = target: Neurotensin receptor type 1 (Homo sapiens, UniProt P30989); assay type: functional;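 also: Image-based confirmatory dose-response assay measuring agonist activity at NTR1; NTR1-expressing U2OS osteosarcoma cells imaged for beta-arrestin GFP spot formation; agonist potency where compounds increase beta-arrestin recruitment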
Chain of Neurotensin receptor type 1 (P30989 whole entry): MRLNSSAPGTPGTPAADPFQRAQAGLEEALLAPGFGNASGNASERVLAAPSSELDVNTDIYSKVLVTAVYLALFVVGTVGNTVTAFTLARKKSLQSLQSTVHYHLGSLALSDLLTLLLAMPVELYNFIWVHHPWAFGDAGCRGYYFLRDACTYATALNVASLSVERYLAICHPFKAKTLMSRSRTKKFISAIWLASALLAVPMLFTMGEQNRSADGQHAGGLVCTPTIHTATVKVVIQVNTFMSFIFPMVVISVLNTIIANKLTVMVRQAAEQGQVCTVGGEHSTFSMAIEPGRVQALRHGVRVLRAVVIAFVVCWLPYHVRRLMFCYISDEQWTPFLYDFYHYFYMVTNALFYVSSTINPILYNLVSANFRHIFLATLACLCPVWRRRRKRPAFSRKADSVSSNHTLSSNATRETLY

[6] = toxicity toward HepG2 liver cells – cell-based, plate reader, cherry-pick, antagonist series, cytotoxicity control, dose response (AID 743416); assay type: functional
[7] = blockers of bursicon-stimulated LGR2 cAMP reporter – cell-based, HEK293, CRE-luciferase reporter, cherry pick, set 2, dose response (AID 743343); assay type: functional;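 also: transfected cells were stimulated with diluted bursicon conditioned medium after compound addition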
[8] = blockade of melanocortin 4 receptor signaling – cell-based, plate reader, cherry pick, counter-screen for LGR2 antagonist project, dose response (AID 743444); assay type: functional;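 also: transfected HEK 293 cells stimulated with alpha-MSH peptide; potency of inhibitors of the alpha-MSH evoked signal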
[9] = target: Melanin-concentrating hormone receptor 1 (Homo sapiens, UniProt Q99705); assay: Fluorescence-based counterscreen for antagonists of the G-protein coupled receptor 7 (GPR7): cell-based high throughput dose response assay to identify antagonists of the melanin-concentrating hormone receptor 1 (MCHR1).; assay type: functional
Chain of Melanin-concentrating hormone receptor 1 (Q99705 whole entry): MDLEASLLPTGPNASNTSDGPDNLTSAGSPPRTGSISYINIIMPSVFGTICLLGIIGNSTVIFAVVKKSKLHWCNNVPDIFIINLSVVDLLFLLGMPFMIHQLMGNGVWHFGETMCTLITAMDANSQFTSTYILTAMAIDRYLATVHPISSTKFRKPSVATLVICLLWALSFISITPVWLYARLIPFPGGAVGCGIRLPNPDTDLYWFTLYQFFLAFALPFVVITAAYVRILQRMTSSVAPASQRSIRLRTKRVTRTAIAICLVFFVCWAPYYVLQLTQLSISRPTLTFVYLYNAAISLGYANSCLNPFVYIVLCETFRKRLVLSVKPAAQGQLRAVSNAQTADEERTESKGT

## COc1ccc(/C=C2\SC(=O)N(CC(=O)NNC(=O)c3ccccc3O)C2=O)cc1
[1]
  EC50: 64.3 µM (not active)
Albumin
  IC50: > 94.1 µM (inactive)

## CCOC(=O)OCC1OC(c2ccccc2)C=CC1OC(=O)OCC (centres undefined)
Cytochrome P450 2C9
  AC50: 3.16 µM (inconclusive)

## COc1ccc(CCNC(=O)C2CCC(CNS(=O)(=O)c3ccccc3)CC2)cc1OC (centres undefined)
[1]
  EC50: > 100 µM (not active)
Prothrombin
  IC50: > 50 µM (not active)

## CC(NS(=O)(=O)c1ccccc1)c1nnc(S)n1-c1ccccc1 (centres undefined)
[2]
  EC50: > 55.7 µM (not active)
[3]
  EC50: > 55.7 µM (not active)

## C=C[C@@](C)(O)CC[C@H]1[C@]2(C)CCCC(C)(C)[C@H]2CC[C@]1(C)O
Cytochrome P450 2C9
  AC50: 31.6 µM (inconclusive)

## COC(=O)c1ccc(NC(=O)CSc2nc3ccc(N4C(=O)C5C6C=CC(C6)C5C4=O)cc3s2)cc1 (centres undefined)
[4]
  CC50: > 40 µM (active)
[5]
  EC50: > 40 µM (inactive)
[6]
  AC50: > 52 µM (inactive)
[7]
  AC50: 8.11 µM (active)
[8]
  AC50: 7.79 µM (active)

## CCOC(=O)C(C)On1c(-c2ccccc2)nc2ccc([N+](=O)[O-])cc21 (centres undefined)
[9]
  IC50: 15.9 µM (not active)

From ChEMBL document CHEMBL1201862, “PubChem BioAssay data set” (2004)
